{"source": "patent US20170363616A1", "about": "“PATTERNED NEUROMUSCULAR JUNCTIONS AND METHODS OF USE” (Los Alamos National Security, LLC, priority 2014, published 2017)", "key": {"[1]": {"tested_on": "C2C12 skeletal myoblasts", "experiment": "Differentiation of C2C12 myoblasts to myotubes on graphene films or SiO2", "format": "cell-based, mouse", "protocol": "C2C12 skeletal myoblasts (ATCC Cat. No. CRL 1772) were cultured on graphene films or SiO2 in high glucose DMEM supplemented with 10% fetal bovine serum (FBS) and 1% antibiotics. […] Cells were cultured for 5 days and stained with primary antibody MF20 (myosin heavy chain, MHC) overnight at 4° C., followed by goat anti-mouse secondary antibody and the nuclear stain 4′, 6-diamidino-2-phenylindole (DAPI) for 2 hours at 37° C. Cells were imaged with a fluorescent microscope and images were quantified using ImageJ 1.47d.\nFusion index was calculated as the ratio of the number of nuclei in myocytes with two or more nuclei versus the total number of nuclei. Cell density was determined by counting the number of nuclei in a particular area. Statistical analysis was performed using one-way analysis of variance and values are reported as mean±standard error of the mean."}, "[2]": {"tested_on": "NSC-34 motor neuron cells", "experiment": "Differentiation of NSC-34 motor neuron cells (neurite outgrowth)", "format": "cell-based, mouse", "conditions": "IGF-1 added to Neurobasal differentiation media", "protocol": "NSC-34 cells (Cellutions, Cat. No. CLU 140) are a hybrid cell line produced by fusion of motor neuron enriched embryonic mouse spinal cord cells with mouse neuroblastoma, resulting in a motor neuron-like cell. NSC-34 cells were grown in high glucose DMEM with 10% FBS and 1% antibiotics. […] In some examples, NSC-34 cells were cultured in Neurobasal medium with 50-100 ng/ml IGF-1. Cells were imaged with a fluorescent microscope and images were quantified using ImageJ 1.47d with the NeuronJ plugin."}, "[3]": {"conditions": "IGF-1 (50 ng/ml) added to differentiation medium, graphene films, vs differentiation medium alone"}}}
{"substance": "insulin-like growth factor-1 [IGF-1]", "values": [{"measurement": "cell density", "setting": "[1]; [3]", "value": "significantly increased"}, {"measurement": "fusion index", "setting": "[1]; [3]", "value": "significantly increased"}, {"measurement": "myotube formation", "setting": "[1]; [3]", "value": "significantly increased"}, {"measurement": "myotube formation", "setting": "[1]; increasing the amount of IGF-1 in the differentiation medium from 1-500 ng/ml", "value": "increased myotube formation"}, {"measurement": "neurite length per neuron", "setting": "[2]", "value": "significantly increased"}, {"measurement": "number of neurites per neuron", "setting": "[2]", "value": "did not affect"}, {"measurement": "sum of neurite length", "setting": "[2]", "value": "significantly increased"}]}
